Test results as given in patent publication US7417156B2, “Orally active, antimalarial, anticancer, artemisinin-derived trioxane dimers” (Johns Hopkins University, priority 2002, dated 2008).
Where two headings read alike, the source gives them in different places.

How the values were obtained:
SK-OV-3 = test: NCI 60 cell line panel screen (SRB); type: cell-based, human; settings: for Log10GI50: Ovarian Cancer, SK-OV-3; for Log10LC50 / Log10TGI50: SK-OV-3 (Ovarian Cancer); for Log10LC50: LC50: PG=−50; for Log10TGI50: TGI: PG=0
K-562 = test: NCI 60 cell line panel screen (SRB); type: cell-based, human; settings: for Log10LC50 / Log10TGI50: K-562 (Leukemia); for Log10LC50: LC50: PG=−50; for Log10TGI50: TGI: PG=0; for Log10GI50: Leukemia, K-562
HOP-62 = test: NCI 60 cell line panel screen (SRB); type: cell-based, human; settings: for Log10LC50 / Log10TGI50: HOP-62 (Non-Small Cell Lung Cancer); for Log10LC50: LC50: PG=−50; for Log10TGI50: TGI: PG=0; for Log10GI50: Non-Small Cell Lung Cancer, HOP-62
CAKI-1 = test: NCI 60 cell line panel screen (SRB); type: cell-based, human; settings: for Log10LC50 / Log10TGI50: CAKI-1 (Renal Cancer); for Log10LC50: LC50: PG=−50; for Log10TGI50: TGI: PG=0; for Log10GI50: Renal Cancer, CAKI-1
HCT-116 = test: NCI 60 cell line panel screen (SRB); type: cell-based, human; settings: for Log10GI50: Colon Cancer, HCT-116; for Log10LC50: LC50: PG=−50
PC-3 = test: NCI 60 cell line panel screen (SRB); type: cell-based, human; settings: for Log10LC50 / Log10TGI50: PC-3 (Prostate Cancer); for Log10LC50: LC50: PG=−50; for Log10TGI50: TGI: PG=0; for Log10GI50: Prostate Cancer, PC-3
NCI-H460 = test: NCI 60 cell line panel screen (SRB); type: cell-based, human; settings: for Log10LC50 / Log10TGI50: NCI-H460 (Non-Small Cell Lung Cancer); for Log10LC50: LC50: PG=−50; for Log10TGI50: TGI: PG=0; for Log10GI50: Non-Small Cell Lung Cancer, NCI-H460
SK-MEL-2 = test: NCI 60 cell line panel screen (SRB); type: cell-based, human; settings: for Log10GI50: Melanoma, SK-MEL-2; for Log10LC50: SK-MEL2 (Melanoma), LC50: PG=−50; for Log10TGI50: SK-MEL-2 (Melanoma), TGI: PG=0
OVCAR-8 = test: NCI 60 cell line panel screen (SRB); type: cell-based, human; settings: for Log10LC50 / Log10TGI50: OVCAR-8 (Ovarian Cancer); for Log10LC50: LC50: PG=−50; for Log10TGI50: TGI: PG=0; for Log10GI50: Ovarian Cancer, OVCAR-8
OVCAR-3 = test: NCI 60 cell line panel screen (SRB); type: cell-based, human; settings: for Log10LC50 / Log10TGI50: OVCAR-3 (Ovarian Cancer); for Log10LC50: LC50: PG=−50; for Log10TGI50: TGI: PG=0; for Log10GI50: Ovarian Cancer, OVCAR-3
MALME-3M = test: NCI 60 cell line panel screen (SRB); type: cell-based, human; settings: for Log10LC50 / Log10TGI50: MALME-3M (Melanoma); for Log10LC50: LC50: PG=−50; for Log10TGI50: TGI: PG=0
SNB-75 = test: NCI 60 cell line panel screen (SRB); type: cell-based, human; settings: for Log10GI50: CNS Cancer, SNB-75; for Log10LC50 / Log10TGI50: SNB-75 (CNS Cancer); for Log10LC50: LC50: PG=−50; for Log10TGI50: TGI: PG=0
MDA-MB-435 = test: NCI 60 cell line panel screen (SRB); type: cell-based, human; settings: for Log10LC50 / Log10TGI50: MDA-MB-435 (Breast Cancer); for Log10LC50: LC50: PG=−50; for Log10TGI50: TGI: PG=0
60 cell line panel = type: cell-based; settings: for Log10LC50 Delta / Log10LC50 Range / Log10TGI50 Delta / Log10TGI50 Range: 60 cell line panel; for growth inhibition and cytotoxicity in words: human cancer cell lines in general; for growth inhibition in words: leukemia cell line RPM 1-8226, melanoma cell line SK-MEL-5, renal cancer cell line ACHN; for Log10GI50 MG MID: mean over panel; for Log10LC50 MG MID / Log10TGI50 MG MID: mean value over the 60 cell line panel
RXF 393 = test: NCI 60 cell line panel screen (SRB); type: cell-based, human; settings: for Log10LC50 / Log10TGI50: RXF 393 (Renal Cancer); for Log10LC50: LC50: PG=−50; for Log10TGI50: TGI: PG=0; for Log10GI50: Renal Cancer, RXF 393
[1] = test system: chloroquine-sensitive P. falciparum (NF54); test: Antimalarial activity in vitro, [3H]hypoxanthine incorporation; type: cell-based
SF-539 = test: NCI 60 cell line panel screen (SRB); type: cell-based, human; settings: for Log10GI50: CNS Cancer, SF-539; for Log10LC50 / Log10TGI50: SF-539 (CNS Cancer); for Log10LC50: LC50: PG=−50; for Log10TGI50: TGI: PG=0
SNB-19 = test: NCI 60 cell line panel screen (SRB); type: cell-based, human; settings: for Log10GI50: CNS Cancer, SNB-19; for Log10LC50 / Log10TGI50: SNB-19 (CNS Cancer); for Log10LC50: LC50: PG=−50; for Log10TGI50: TGI: PG=0
[2] = Table I, NF54 strain, read-out: IC50

Structure (SMILES): CC1CCC2C(C)C(CC(CO)CC3OC4OC5(C)CCC6C(C)CCC(C3C)C46OO5)OC3OC4(C)CCC1C32OO4 (stereo not shown) [Compound 4, bis-trioxane primary alcohol]
- Log10GI50 (SK-OV-3): −4.85
- Log10LC50 (SK-OV-3): −4.21 log10M
- Log10TGI50 (SK-OV-3): −4.53 log10M
- Log10LC50 (K-562): >−4.00 log10M
- Log10TGI50 (K-562): >−4.00 log10M
- Log10GI50 (K-562): −7.91
- Log10LC50 (HOP-62): −4.20 log10M
- Log10TGI50 (HOP-62): −4.56 log10M
- Log10GI50 (HOP-62): −4.92
- Log10LC50 (CAKI-1): −4.38 log10M
- Log10TGI50 (CAKI-1): −4.84 log10M
- Log10GI50 (CAKI-1): −7.05
- Log10GI50 (HCT-116): <−8.00
- Log10LC50 (HCT-116; HCT-116 (Colon Cancer)): −4.57 log10M
- Log10LC50 (PC-3): −4.34 log10M
- Log10TGI50 (PC-3): −4.89 log10M
- Log10GI50 (PC-3): <−8.00
- Log10LC50 (NCI-H460): −4.19 log10M
- Log10TGI50 (NCI-H460): −4.71 log10M
- Log10GI50 (NCI-H460): −7.35
- Log10GI50 (SK-MEL-2): −7.33
- Log10LC50 (SK-MEL-2): −4.46 log10M
- Log10TGI50 (SK-MEL-2): −4.92 log10M
- Log10LC50 (OVCAR-8): −4.03 log10M
- Log10TGI50 (OVCAR-8): −4.69 log10M
- Log10GI50 (OVCAR-8): −7.33
- Log10LC50 (OVCAR-3): −4.42 log10M
- Log10TGI50 (OVCAR-3): −4.92 log10M
- Log10GI50 (OVCAR-3): −7.68
- Log10LC50 (MALME-3M): −4.28 log10M
- Log10TGI50 (MALME-3M): −4.74 log10M
- Log10GI50 (MALME-3M; Melanoma, MALME-3M): −7.31
- Log10GI50 (SNB-75): −4.99
- Log10LC50 (SNB-75): −4.12 log10M
- Log10TGI50 (SNB-75): −4.55 log10M
- Log10GI50 (MDA-MB-435; Breast Cancer, MDA-MB-435): −7.50
- Log10LC50 (MDA-MB-435): −4.30 log10M
- Log10TGI50 (MDA-MB-435): −4.78 log10M
- Log10GI50 Delta (60 cell line panel): 1.13
- Log10GI50 Range (60 cell line panel): 3.20
- Log10LC50 Delta (60 cell line panel): 0.88
- Log10LC50 Range (60 cell line panel): 1.14
- Log10TGI50 Delta (60 cell line panel): 2.31
- Log10TGI50 Range (60 cell line panel): 3.18
- growth inhibition and cytotoxicity in words (60 cell line panel): strongly inhibitory but not cytotoxic
- growth inhibition in words (60 cell line panel): selectively and strongly inhibitory
- Log10GI50 MG MID (60 cell line panel): −6.87
- Log10LC50 MG MID (60 cell line panel): −4.26 log10M
- Log10TGI50 MG MID (60 cell line panel): −4.87 log10M
- Log10LC50 (RXF 393): −4.01 log10M
- Log10TGI50 (RXF 393): −4.41 log10M
- Log10GI50 (RXF 393): −4.80
- IC50 [1]: below one nM
- antimalarial potency in vitro relative to artemisinin [1]: 10 times
- IC50 [1, 2]: 0.87 nM
- Log10GI50 (SF-539): −7.05
- Log10LC50 (SF-539): −4.34 log10M
- Log10TGI50 (SF-539): −4.72 log10M
- Log10GI50 (SNB-19): −4.88
- Log10LC50 (SNB-19): −4.13 log10M
- Log10TGI50 (SNB-19): −4.50 log10M

Structure (SMILES): CC1CCC2C(C)C(CC(O)(CO)CC3OC4OC5(C)CCC6C(C)CCC(C3C)C46OO5)OC3OC4(C)CCC1C32OO4 (stereo not shown) [Compound 5, bis-trioxane vicinal diol]
- Log10GI50 (SK-OV-3): −4.62
- Log10LC50 (SK-OV-3): >−4.00 log10M
- Log10TGI50 (SK-OV-3): −4.15 log10M
- Log10LC50 (K-562): >−4.00 log10M
- Log10TGI50 (K-562): >−4.00 log10M
- Log10GI50 (K-562): <−8.00
- Log10LC50 (HOP-62): >−4.00 log10M
- Log10TGI50 (HOP-62): −4.26 log10M
- Log10GI50 (HOP-62): −4.66
- Log10LC50 (CAKI-1): −4.13 log10M
- Log10TGI50 (CAKI-1): −4.54 log10M
- Log10GI50 (CAKI-1): −4.94
- Log10GI50 (HCT-116): −4.72
- Log10LC50 (HCT-116; HCT-116 (Colon Cancer)): >−4.00 log10M
- Log10TGI50 (HCT-116; HCT-116 (Colon Cancer), TGI: PG=0): >−4.00 log10M
- Log10LC50 (PC-3): >−4.00 log10M
- Log10TGI50 (PC-3): −4.49 log10M
- Log10GI50 (PC-3): <−8.00
- Log10LC50 (NCI-H460): >−4.00 log10M
- Log10TGI50 (NCI-H460): −4.40 log10M
- Log10GI50 (NCI-H460): −5.02
- Log10GI50 (SK-MEL-2): −4.94
- Log10LC50 (SK-MEL-2): −4.12 log10M
- Log10TGI50 (SK-MEL-2): −4.53 log10M
- Log10LC50 (OVCAR-8): >−4.00 log10M
- Log10TGI50 (OVCAR-8): −4.47 log10M
- Log10GI50 (OVCAR-8): <−8.00
- Log10LC50 (OVCAR-3): >−4.00 log10M
- Log10TGI50 (OVCAR-3): −4.45 log10M
- Log10GI50 (OVCAR-3): −5.09
- Log10LC50 (MALME-3M): −4.11 log10M
- Log10TGI50 (MALME-3M): −4.50 log10M
- Log10GI50 (SNB-75): −4.53
- Log10LC50 (SNB-75): >−4.00 log10M
- Log10TGI50 (SNB-75): −4.04 log10M
- Log10LC50 (MDA-MB-435): −4.09 log10M
- Log10TGI50 (MDA-MB-435): −4.54 log10M
- Log10GI50 Delta (60 cell line panel): 2.03
- Log10GI50 Range (60 cell line panel): 3.47
- Log10LC50 Delta (60 cell line panel): 0.37
- Log10LC50 Range (60 cell line panel): 0.47
- Log10TGI50 Delta (60 cell line panel): 3.50
- Log10TGI50 Range (60 cell line panel): 4.00
- growth inhibition and cytotoxicity in words (60 cell line panel): strongly inhibitory but not cytotoxic
- growth inhibition in words (60 cell line panel): selectively and strongly inhibitory
- Log10GI50 MG MID (60 cell line panel): −5.97
- Log10LC50 MG MID (60 cell line panel): −4.09 log10M
- Log10TGI50 MG MID (60 cell line panel): −4.50 log10M
- Log10LC50 (RXF 393): −4.18 log10M
- Log10TGI50 (RXF 393): −4.53 log10M
- Log10GI50 (RXF 393): −4.89
- IC50 [1]: below one nM
- antimalarial potency in vitro relative to artemisinin [1]: 10 times
- IC50 [1, 2]: 0.59 nM
- Log10GI50 (SF-539): −4.86
- Log10LC50 (SF-539): >−4.00 log10M
- Log10TGI50 (SF-539): −4.41 log10M
- Log10GI50 (SNB-19): −4.82
- Log10LC50 (SNB-19): >−4.00 log10M
- Log10TGI50 (SNB-19): −4.34 log10M
